# PMC4929832 (Nature, 2016)
# pIC50: −log10 of the molar value.
# Assays:
# FMS = FMS (Homo sapiens, UniProt P07333); assay: kinase panel; assay type: biochemical
# ROCK1 = ROCK1 (Homo sapiens, UniProt Q13464); assay: kinase panel; assay type: biochemical
# MAPK1 = MAPK1 (Homo sapiens, UniProt P28482); assay: kinase panel; assay type: biochemical
# GRK3 = GRK3 (Homo sapiens, UniProt P35626); assay: kinase panel; assay type: biochemical
# PASK = PASK (Homo sapiens, UniProt Q96RG2); assay: kinase panel; assay type: biochemical
# PDGFR-BETA = PDGFR-BETA (Homo sapiens, UniProt P09619); assay: kinase panel; assay type: biochemical
# CLK2 = CLK2 (Homo sapiens, UniProt P49760); assay: kinase panel; assay type: biochemical
# SGK3 = SGK3 (Homo sapiens, UniProt Q96BR1); assay: kinase panel; assay type: biochemical
# HIPK2 = HIPK2 (Homo sapiens, UniProt Q9H2X6); assay: kinase panel; assay type: biochemical
# PI3K-GAMMA = PI3K-GAMMA (Homo sapiens, UniProt P48736); assay: kinase panel; assay type: biochemical
# AXL = AXL (Homo sapiens, UniProt P30530); assay: kinase panel; assay type: biochemical
# MNK2 = MNK2 (Homo sapiens, UniProt Q9HBH9); assay: kinase panel; assay type: biochemical
# SPHK1 = SPHK1 (Homo sapiens, UniProt Q9NYA1); assay: kinase panel; assay type: biochemical
# IGF1R = IGF1R (Homo sapiens, UniProt P08069); assay: kinase panel; assay type: biochemical
# MRCK-ALPHA = MRCK-ALPHA (Homo sapiens, UniProt Q5VT25); assay: kinase panel; assay type: biochemical
# PIM3 = PIM3 (Homo sapiens, UniProt Q86V86); assay: kinase panel; assay type: biochemical
# SRC = SRC (Homo sapiens, UniProt P12931); assay: kinase panel; assay type: biochemical
# PKA = PKA (Homo sapiens, UniProt P17612); assay: kinase panel; assay type: biochemical
# IKK-EPSILON = IKK-EPSILON (Homo sapiens, UniProt Q14164); assay: kinase panel; assay type: biochemical
# CAMK1A = CAMK1A (Homo sapiens, UniProt Q14012); assay: kinase panel; assay type: biochemical
# MST4 = MST4 (Homo sapiens, UniProt Q9P289); assay: kinase panel; assay type: biochemical
# EPH-A8 = EPH-A8 (Homo sapiens, UniProt P29322); assay: kinase panel; assay type: biochemical
# JAK3 = JAK3 (Homo sapiens, UniProt P52333); assay: kinase panel; assay type: biochemical
# EPH-B2 = EPH-B2 (Homo sapiens, UniProt P29323); assay: kinase panel; assay type: biochemical
# ERB-B2 = ERB-B2 (Homo sapiens, UniProt P04626); assay: kinase panel; assay type: biochemical
# NEK7 = NEK7 (Homo sapiens, UniProt Q8TDX7); assay: kinase panel; assay type: biochemical
# CDK3-CYCLINE = CDK3-CYCLINE (Homo sapiens, UniProt Q00526); assay: kinase panel; assay type: biochemical
# LATS2 = LATS2 (Homo sapiens, UniProt Q9NRM7); assay: kinase panel; assay type: biochemical
# CDK5 = CDK5 (Homo sapiens, UniProt Q00535); assay: kinase panel; assay type: biochemical
# LOK = LOK (Homo sapiens, UniProt O94804); assay: kinase panel; assay type: biochemical
# TTK = TTK (Homo sapiens, UniProt P33981); assay: kinase panel; assay type: biochemical
# FGFR4 = FGFR4 (Homo sapiens, UniProt P22455); assay: kinase panel; assay type: biochemical
# CDK9-CYCLINT1 = CDK9-CYCLINT1 (Homo sapiens, UniProt P50750); assay: kinase panel; assay type: biochemical
# FGR = FGR (Homo sapiens, UniProt P09769); assay: kinase panel; assay type: biochemical
# YES = YES (Homo sapiens, UniProt P07947); assay: kinase panel; assay type: biochemical
# FLT-4 = FLT-4 (Homo sapiens, UniProt P35916); assay: kinase panel; assay type: biochemical
# [1] = molecular target: Adrenergic Alpha 2C receptor (Homo sapiens, UniProt P18825); assay: Adrenergic Alpha 2C receptor assay; assay type: binding
# Dopamine Transporter = Dopamine Transporter (Homo sapiens, UniProt Q01959); assay: Dopamine Transporter assay; assay type: binding
# Histamine H1 receptor = Histamine H1 receptor (Homo sapiens, UniProt P35367); assay: Histamine H1 receptor assay; assay type: binding
# [2] = molecular target: Melanocortin MC3 receptor (Homo sapiens, UniProt P41968); assay: Melanocortin MC3 receptor binding assay
# PPARgamma Receptor = PPARgamma Receptor (Homo sapiens, UniProt P37231); assay: PPARgamma Receptor agonist assay; assay type: cell-based
# [3] = system: L858R/T790M-mutant lung cancer (genetically engineered mice); assay: Mouse efficacy study, tumor volume by MRI; assay type: in vivo; conditions: EAI045 alone 60 mg/kg oral once daily, 4 weeks
# Chain of PI3K-GAMMA (P48736 whole entry): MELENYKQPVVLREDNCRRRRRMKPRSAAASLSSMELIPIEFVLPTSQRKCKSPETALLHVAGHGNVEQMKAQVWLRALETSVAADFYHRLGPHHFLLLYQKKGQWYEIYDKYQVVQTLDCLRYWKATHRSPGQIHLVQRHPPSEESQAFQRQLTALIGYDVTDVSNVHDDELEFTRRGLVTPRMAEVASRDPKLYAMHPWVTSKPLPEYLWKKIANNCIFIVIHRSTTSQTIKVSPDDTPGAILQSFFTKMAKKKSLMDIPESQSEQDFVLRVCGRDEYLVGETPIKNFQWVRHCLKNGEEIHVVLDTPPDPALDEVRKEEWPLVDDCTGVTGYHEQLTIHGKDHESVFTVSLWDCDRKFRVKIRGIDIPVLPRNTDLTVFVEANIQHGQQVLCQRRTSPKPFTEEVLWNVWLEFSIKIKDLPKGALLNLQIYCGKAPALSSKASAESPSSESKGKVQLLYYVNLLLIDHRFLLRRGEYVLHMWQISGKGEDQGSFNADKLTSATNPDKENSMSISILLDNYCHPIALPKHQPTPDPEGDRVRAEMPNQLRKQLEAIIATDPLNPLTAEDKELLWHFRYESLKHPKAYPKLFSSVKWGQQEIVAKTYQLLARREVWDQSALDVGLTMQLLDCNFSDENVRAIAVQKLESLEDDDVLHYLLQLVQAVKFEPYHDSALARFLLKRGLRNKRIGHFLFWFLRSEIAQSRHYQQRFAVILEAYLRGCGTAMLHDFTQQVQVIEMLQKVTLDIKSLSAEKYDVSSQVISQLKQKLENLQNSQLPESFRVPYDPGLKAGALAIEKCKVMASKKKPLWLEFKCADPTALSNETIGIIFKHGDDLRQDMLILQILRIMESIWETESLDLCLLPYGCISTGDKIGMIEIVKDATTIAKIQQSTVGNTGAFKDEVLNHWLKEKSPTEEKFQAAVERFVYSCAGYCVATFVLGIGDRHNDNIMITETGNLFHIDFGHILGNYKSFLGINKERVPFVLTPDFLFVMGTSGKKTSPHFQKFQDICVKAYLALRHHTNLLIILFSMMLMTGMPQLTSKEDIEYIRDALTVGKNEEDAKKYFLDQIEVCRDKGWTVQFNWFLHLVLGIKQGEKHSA
# Chain of Dopamine Transporter (Q01959 whole entry): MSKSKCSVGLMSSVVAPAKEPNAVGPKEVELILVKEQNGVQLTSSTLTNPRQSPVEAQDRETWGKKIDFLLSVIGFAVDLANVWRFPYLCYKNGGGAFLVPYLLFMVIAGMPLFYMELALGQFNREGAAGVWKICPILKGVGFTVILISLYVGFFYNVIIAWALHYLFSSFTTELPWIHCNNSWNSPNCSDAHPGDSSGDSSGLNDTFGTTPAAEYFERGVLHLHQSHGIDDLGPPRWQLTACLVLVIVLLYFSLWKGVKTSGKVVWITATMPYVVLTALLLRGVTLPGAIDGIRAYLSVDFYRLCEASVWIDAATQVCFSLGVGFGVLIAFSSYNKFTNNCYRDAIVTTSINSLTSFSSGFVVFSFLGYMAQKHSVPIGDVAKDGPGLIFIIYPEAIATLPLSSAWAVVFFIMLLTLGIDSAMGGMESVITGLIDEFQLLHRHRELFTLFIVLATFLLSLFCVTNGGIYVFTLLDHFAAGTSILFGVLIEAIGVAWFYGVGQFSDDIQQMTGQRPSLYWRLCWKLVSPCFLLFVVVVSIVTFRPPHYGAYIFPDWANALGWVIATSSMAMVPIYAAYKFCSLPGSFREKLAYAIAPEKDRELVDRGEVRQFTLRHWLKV
# Chain of FGFR4 (P22455 22-802): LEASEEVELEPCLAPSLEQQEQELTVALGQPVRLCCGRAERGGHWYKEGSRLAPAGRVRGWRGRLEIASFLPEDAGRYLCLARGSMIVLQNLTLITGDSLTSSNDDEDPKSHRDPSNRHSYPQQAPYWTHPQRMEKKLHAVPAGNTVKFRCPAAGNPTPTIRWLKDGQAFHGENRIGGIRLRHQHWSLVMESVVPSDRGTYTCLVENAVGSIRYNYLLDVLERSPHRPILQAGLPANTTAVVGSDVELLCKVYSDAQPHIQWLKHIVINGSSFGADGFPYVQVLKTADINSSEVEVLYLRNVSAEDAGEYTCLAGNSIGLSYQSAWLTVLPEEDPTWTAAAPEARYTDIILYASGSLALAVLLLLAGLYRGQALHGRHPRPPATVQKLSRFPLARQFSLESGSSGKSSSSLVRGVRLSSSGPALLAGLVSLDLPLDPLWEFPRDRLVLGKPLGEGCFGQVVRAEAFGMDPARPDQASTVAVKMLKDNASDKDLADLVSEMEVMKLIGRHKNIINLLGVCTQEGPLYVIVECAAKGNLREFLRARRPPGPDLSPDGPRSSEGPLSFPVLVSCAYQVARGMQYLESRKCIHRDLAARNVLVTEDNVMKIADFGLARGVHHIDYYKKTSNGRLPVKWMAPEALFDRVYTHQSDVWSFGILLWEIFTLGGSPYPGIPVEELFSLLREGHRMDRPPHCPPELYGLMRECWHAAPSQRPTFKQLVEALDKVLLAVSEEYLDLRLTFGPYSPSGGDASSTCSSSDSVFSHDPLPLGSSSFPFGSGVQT
# Chain of PPARgamma Receptor (P37231 whole entry): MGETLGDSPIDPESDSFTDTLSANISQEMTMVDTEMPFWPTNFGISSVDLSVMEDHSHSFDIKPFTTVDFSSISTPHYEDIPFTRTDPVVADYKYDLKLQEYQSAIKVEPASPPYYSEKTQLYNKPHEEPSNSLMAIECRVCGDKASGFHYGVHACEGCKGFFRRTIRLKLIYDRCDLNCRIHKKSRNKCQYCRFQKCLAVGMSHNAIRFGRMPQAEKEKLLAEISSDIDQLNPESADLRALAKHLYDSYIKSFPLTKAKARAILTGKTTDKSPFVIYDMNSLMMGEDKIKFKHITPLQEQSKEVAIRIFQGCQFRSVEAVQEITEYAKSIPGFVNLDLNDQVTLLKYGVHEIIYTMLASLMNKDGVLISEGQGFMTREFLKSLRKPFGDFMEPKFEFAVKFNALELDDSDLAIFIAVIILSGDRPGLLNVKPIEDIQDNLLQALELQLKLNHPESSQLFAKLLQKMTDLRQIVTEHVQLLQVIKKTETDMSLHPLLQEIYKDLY
# Chain of JAK3 (P52333 whole entry): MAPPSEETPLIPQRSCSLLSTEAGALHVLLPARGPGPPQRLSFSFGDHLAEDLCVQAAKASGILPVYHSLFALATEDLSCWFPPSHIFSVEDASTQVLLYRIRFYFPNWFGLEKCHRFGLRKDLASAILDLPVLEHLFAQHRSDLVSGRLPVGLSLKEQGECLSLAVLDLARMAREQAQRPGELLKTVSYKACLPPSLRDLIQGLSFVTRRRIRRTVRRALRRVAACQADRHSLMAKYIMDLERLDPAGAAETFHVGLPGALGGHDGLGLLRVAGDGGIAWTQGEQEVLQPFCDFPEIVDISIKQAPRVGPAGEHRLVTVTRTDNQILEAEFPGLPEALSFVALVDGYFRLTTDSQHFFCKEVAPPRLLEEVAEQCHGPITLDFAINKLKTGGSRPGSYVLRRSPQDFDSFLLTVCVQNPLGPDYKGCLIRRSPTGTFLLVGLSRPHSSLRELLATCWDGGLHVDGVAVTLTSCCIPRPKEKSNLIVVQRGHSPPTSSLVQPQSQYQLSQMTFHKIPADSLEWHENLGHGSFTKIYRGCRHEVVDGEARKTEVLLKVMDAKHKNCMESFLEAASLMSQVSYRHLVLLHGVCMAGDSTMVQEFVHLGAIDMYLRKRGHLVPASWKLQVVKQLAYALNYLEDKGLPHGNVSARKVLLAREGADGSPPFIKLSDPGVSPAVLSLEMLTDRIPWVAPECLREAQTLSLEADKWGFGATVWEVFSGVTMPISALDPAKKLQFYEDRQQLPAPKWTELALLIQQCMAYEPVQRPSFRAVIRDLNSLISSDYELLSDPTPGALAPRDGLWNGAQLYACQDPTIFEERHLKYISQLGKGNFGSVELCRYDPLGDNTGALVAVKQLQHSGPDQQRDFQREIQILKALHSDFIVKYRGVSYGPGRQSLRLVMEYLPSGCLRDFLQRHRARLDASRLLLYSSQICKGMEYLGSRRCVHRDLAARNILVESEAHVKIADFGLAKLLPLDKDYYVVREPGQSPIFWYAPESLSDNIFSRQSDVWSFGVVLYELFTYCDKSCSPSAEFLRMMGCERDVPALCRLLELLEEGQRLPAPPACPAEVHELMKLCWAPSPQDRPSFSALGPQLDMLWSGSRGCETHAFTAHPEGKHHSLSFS
# Chain of NEK7 (Q8TDX7 whole entry): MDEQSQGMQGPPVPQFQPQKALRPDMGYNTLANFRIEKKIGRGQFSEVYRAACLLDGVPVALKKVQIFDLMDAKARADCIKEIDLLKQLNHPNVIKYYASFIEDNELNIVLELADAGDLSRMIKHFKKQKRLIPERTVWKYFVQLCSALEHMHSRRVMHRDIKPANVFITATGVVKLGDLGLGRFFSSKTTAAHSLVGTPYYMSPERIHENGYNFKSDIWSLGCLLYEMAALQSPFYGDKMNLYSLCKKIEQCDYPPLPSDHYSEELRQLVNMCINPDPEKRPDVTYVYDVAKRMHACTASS
# Chain of CDK5 (Q00535 whole entry): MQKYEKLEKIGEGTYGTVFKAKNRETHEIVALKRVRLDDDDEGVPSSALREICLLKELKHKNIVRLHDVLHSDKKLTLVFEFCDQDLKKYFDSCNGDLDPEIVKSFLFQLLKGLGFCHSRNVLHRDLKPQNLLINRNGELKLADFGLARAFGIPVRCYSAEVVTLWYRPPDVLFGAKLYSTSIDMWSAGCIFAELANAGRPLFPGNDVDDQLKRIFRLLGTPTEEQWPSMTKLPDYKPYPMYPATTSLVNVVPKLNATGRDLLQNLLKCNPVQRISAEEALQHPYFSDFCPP
# Chain of CDK5 (Q15078 whole entry partner): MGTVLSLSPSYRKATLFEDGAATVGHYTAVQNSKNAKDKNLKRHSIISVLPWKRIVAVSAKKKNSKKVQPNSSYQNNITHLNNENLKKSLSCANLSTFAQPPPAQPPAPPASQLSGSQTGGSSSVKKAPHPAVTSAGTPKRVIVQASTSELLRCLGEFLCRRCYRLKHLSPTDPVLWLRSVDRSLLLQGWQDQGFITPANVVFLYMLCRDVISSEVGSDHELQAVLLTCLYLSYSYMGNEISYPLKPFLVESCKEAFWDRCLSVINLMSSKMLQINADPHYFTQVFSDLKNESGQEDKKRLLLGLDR
structure (smiles),measurement,setting,value
"O=C(Nc1nccs1)C(c1cc(F)ccc1O)N1Cc2ccccc2C1=O (stereo not drawn) [EAI045, 2-(5-fluoro-2-hydroxyphenyl)-2-(1-oxo-2,3-dihydro-1H-isoindol-2-yl)-N-(1,3-thiazol-2-yl)acetamide]",inhibition at 1 µM,FMS,0%
same,inhibition at 1 µM,ROCK1,0%
same,inhibition at 1 µM,MAPK1,0%
same,inhibition at 1 µM,GRK3,0%
same,inhibition at 1 µM,PASK,1%
same,inhibition at 1 µM,PDGFR-BETA,4%
same,inhibition at 1 µM,CLK2,1%
same,inhibition at 1 µM,SGK3,0%
same,inhibition at 1 µM,HIPK2,2%
same,inhibition at 1 µM,PI3K-GAMMA,0%
same,inhibition at 1 µM,AXL,4%
same,inhibition at 1 µM,MNK2,3%
same,inhibition at 1 µM,SPHK1,0%
same,inhibition at 1 µM,IGF1R,4%
same,inhibition at 1 µM,MRCK-ALPHA,0%
same,inhibition at 1 µM,PIM3,1%
same,inhibition at 1 µM,SRC,0%
same,inhibition at 1 µM,PKA,3%
same,inhibition at 1 µM,IKK-EPSILON,0%
same,inhibition at 1 µM,CAMK1A,0%
same,inhibition at 1 µM,MST4,0%
same,inhibition at 1 µM,EPH-A8,0%
same,inhibition at 1 µM,JAK3,0%
same,inhibition at 1 µM,EPH-B2,0%
same,inhibition at 1 µM,ERB-B2,4%
same,inhibition at 1 µM,NEK7,0%
same,inhibition at 1 µM,CDK3-CYCLINE,0%
same,inhibition at 1 µM,LATS2,2%
same,inhibition at 1 µM,CDK5,0%
same,inhibition at 1 µM,LOK,1%
same,inhibition at 1 µM,TTK,0%
same,inhibition at 1 µM,FGFR4,0%
same,inhibition at 1 µM,CDK9-CYCLINT1,6%
same,inhibition at 1 µM,FGR,0%
same,inhibition at 1 µM,YES,0%
same,inhibition at 1 µM,FLT-4,1%
same,pIC50,[1],< 4.52
same,pIC50,Dopamine Transporter,< 4.52
same,pIC50,Histamine H1 receptor,< 4.52
same,pIC50,[2],< 4.52
same,pIC50,PPARgamma Receptor,< 4.52
same,tumor response,[3],did not respond
